Data: US20080044538A1, “Method For Pigment Solubilization, A pigment Composition And Its Use” (AKZO NOBEL N.V., priority 2004, published 2008)

Assay: Solubilization of pigment from Lucantin Pink CWD into oil with water and surfactant; absorbance of filtered oil-phase
Conditions: type A, mix 3 g, surfactant 2 g, Tobis fish-oil 35 g; for Absorbance at 474 nm after 1.5 days in refrigerator and filtration: 0.200 ml diluted to 10 ml

Substance	% recov. after 1.5 days in refrigerator and filtration	Absorbance at 474 nm after 1.5 days in refrigerator and filtration
Sorbitan monostearate	(30.7) %	0.174
sorbitan monooleate [Sorbitan ester monooleate]	(27.4) %	0.157
